Columns and labels:
[1] = system: tubulin; assay: Tubulin polymerization assay (Cytoskeleton Inc. kit, fluorescent reporter); type: biochemical; settings: fluorescence-based polymerization kinetics
Protocol: Tubulin polymerization was measured using the tubulin polymerization assay kit from Cytoskeleton Inc., which measures tubulin polymerization kinetic via fluorescent enhancement to the incorporation of a fluorescent reporter into microtubules as polymerization takes place.

[2] = system: PC3M-prostate cancer cells; assay: Imaging of microtubule stability by tubulin staining and confocal microscopy; type: cell-based, human; settings: PC3M cells, 24, 48 and 72 hours
Protocol: Cells were seeded on glass coverslips. 24 hours later, cells were treated with compound OBD9. After the indicated times (24 hours, 48 hours, and 72 hours), cells were fixed with paraformaldehyde (4% in PBS), permeabilized Triton-X100 (0.02% in Phosphate buffered saline), then stained with mouse antibody to human tubulin (1:200 dilution) and then with 1:400 goat anti-mouse IgC (Invitrogen) and viewed via confocal microscopy at (63× objective).

[3] = Viability assay: effect of selected compounds on viability; type: cell-based; settings: for viability at 1 µM: 1.0 μM compound; for viability at 10 µM: 10 μM compound
[4] = system: high metastatic (DU145LN4) prostate cancer cells; assay: Apoptosis by PARP-1 and Caspase-3 blot after 48 h treatment; type: cell-based; settings: 48 hours after treatment
Protocol: (§1) Cells were seeded in 6-well dishes at 50% confluence. Cells were treated with the compound OBD9 after 24 hours. 48 hours later, cells were lysed with lysis buffer and protein was collected and quantified with the BCA assay (Invitrogen). 20 micrograms of protein were loaded on 10% polyacrylamide gels. The gels were blotted onto nitrocellulose and stained with rabbit antibody to PARP-1 and Caspase-3 (both from Cell Signaling) and then visualized with goat, anti-rabbit HRP-conjugated antibody and HRP conjugated GAPDH.

[5] = system: parental (DU145) prostate cancer cells; assay: as above; type: cell-based; settings: 48 hours after treatment
Protocol: as §1

| Compound | effect on tubulin polymerization [1] | effect on microtubule (tubulin) stability [2] | viability at 1 µM [3] [%] | viability at 10 µM [3] [%] | apoptosis induction (PARP-1, Caspase-3) [4] | apoptosis induction (PARP-1, Caspase-3) [5] |
| --- | --- | --- | --- | --- | --- | --- |
| COC(=O)Nc1nc2cc(C(=O)c3ccc(N(C)C4COC4)cc3)ccc2[nH]1 [Compound 9] | disrupts (inhibits) tubulin polymerization | interferes with microtubule (tubulin) stability | 34.9 | 34.3 | induces apoptosis | induces apoptosis |
| COC(=O)Nc1nc2cc(Oc3cccc(N4CCN(C)CC4)n3)ccc2[nH]1 [Compound 12] |  |  | 94.5 | 35.2 |  |  |
| COC(=O)Nc1nc2cc(Oc3cccc(N4CCN(C)CC4)c3)ccc2[nH]1 [Compound 13] |  |  | 80.9 | 49.1 |  |  |
| CCCSc1ccc2[nH]c(NC(=O)OCCN(C)C)nc2c1 [Compound 15] |  |  | 97.4 | 35.3 |  |  |
| CCCSc1ccc2[nH]c(NC(=O)OCCCN(C)C)nc2c1 [Compound 16] |  |  | 90.1 | 90.3 |  |  |
| CN(C)CCCOC(=O)Nc1nc2cc(C(=O)c3ccc(F)cc3)ccc2[nH]1 [Compound 17] |  |  | 93.9 | 84.8 |  |  |
